The values below come from US12503475B2 (Centessa Pharmaceuticals (UK) Limited, priority 2020, dated 2025).

Structures are written as SMILES.

As a reminder, the Emax is the maximal effect, on the per cent scale that the assay sets.

For this experiment, the target named is T1, human orexin type 2 receptor (hOX2R) (Homo sapiens, UniProt O43614).
T1 construct: expressed in transfected cells
T1 sequence (O43614 1-444): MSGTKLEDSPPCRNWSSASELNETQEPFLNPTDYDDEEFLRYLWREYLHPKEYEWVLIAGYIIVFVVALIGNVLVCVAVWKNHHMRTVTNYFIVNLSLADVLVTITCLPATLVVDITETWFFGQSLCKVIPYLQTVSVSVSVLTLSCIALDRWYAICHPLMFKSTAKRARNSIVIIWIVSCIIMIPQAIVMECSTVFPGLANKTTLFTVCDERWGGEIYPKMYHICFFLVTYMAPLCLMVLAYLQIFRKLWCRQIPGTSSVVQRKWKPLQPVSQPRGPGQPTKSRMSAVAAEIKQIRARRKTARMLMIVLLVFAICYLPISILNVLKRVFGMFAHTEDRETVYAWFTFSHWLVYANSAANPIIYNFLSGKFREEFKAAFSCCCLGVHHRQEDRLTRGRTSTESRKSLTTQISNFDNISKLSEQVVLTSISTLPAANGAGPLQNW
In words: Measurement of orexin type 2 receptor agonist activity (FLIPR calcium fluorescence). Conditions: CHO cells expressing hOX2R, FLIPR calcium fluorescence; for EC50: read-out: hOx2 pEC50 (converted); for Emax: CHO, read-out: hOx2 Emax (%). In kind it is cell-based. The method, boiled down:
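Agonism was read as fluorescence in cells stably expressing human OX2R. E. is the response at 10 μM relative to orexin A as full agonist (100%).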

For the compound `O=C([C@H]1CCO1)N1CC2(CC2)[C@H](NS(=O)(=O)CF)[C@@H]1Cc1cc(F)cc(-c2cccc(F)c2)c1F` [Compound 123, 1-fluoro-N-((6S,7S)-5-((R)-oxetane-2-carbonyl)-6-((2,3′,5-trifluoro-[1,1′-biphenyl]-3-yl)methyl)-5-azaspiro[2.4]heptan-7-yl)methanesulfonamide], the EC50 is 0.0794 to 1 nM and the Emax lay within 90 to 100%.
On the same counts, the results for `O=C([C@H](O)CF)N1CC2(CC2)[C@H](NS(=O)(=O)C(F)F)[C@@H]1Cc1cccc(-c2cccc(F)c2)c1F` [Compound 380, N-((6S,7S)-6-((2,3′-difluoro-[1,1′-biphenyl]-3-yl)methyl)-5-((S)-3-fluoro-2-hydroxypropanoyl)-5-azaspiro[2.4]heptan-7-yl)-1,1-difluoromethanesulfonamide] are 0.0794 to 1 nM and 90 to 100%.
For `CS(=O)(=O)N[C@@H]1[C@H](Cc2cccc(-c3ccccc3)c2F)N(C(=O)NCC2(F)CC2)CC12CC2` [Compound 104, (6S,7S)-6-((2-fluoro-[1,1′-biphenyl]-3-yl)methyl)-N-((1-fluorocyclopropyl)methyl)-7-(methylsulfonamido)-5-azaspiro[2.4]heptane-5-carboxamide], the EC50 is 1 to 10 nM and the Emax was 90 to 100%.
For `CS(=O)(=O)NC1C(Cc2cccc(-c3cc(F)cc(F)c3)c2F)N(C(=O)N2CCC2)CC12CC2` (racemic) [Compound 30, N-(5-(azetidine-1-carbonyl)-6-((2,3′,5′-trifluoro-[1,1′-biphenyl]-3-yl)methyl)-5-azaspiro[2.4]heptan-7-yl)methanesulfonamide], in that order: 0.0794 to 1 nM and 90 to 100%.
In the case of `CN(C)S(=O)(=O)N[C@@H]1[C@H](Cc2cc(F)cc(-c3ccccc3)c2F)N(C(=O)[C@H](O)CF)CC12CC2` [Compound 353], the EC50 was 1 to 10 nM and the Emax is 90 to 100%.
For `COCC1(C(=O)N2CC3(CC3)[C@H](NS(C)(=O)=O)[C@@H]2Cc2cccc(-c3ccccc3)c2F)CC1` [Compound 386, N-((6S,7S)-6-((2-fluoro-[1,1′-biphenyl]-3-yl)methyl)-5-(1-(methoxymethyl)cyclopropane-1-carbonyl)-5-azaspiro[2.4]heptan-7-yl)methanesulfonamide], in that order: 1 to 10 nM and 90 to 100%.
For `CCS(=O)(=O)N[C@@H]1[C@H](Cc2cccc(-c3ccccc3)c2F)N(C(=O)[C@H](O)COC)CC12CC2` [Compound 344, N-((6S,7S)-6-((2-fluoro-[1,1′-biphenyl]-3-yl)methyl)-5-((R)-2-hydroxy-3-methoxypropanoyl)-5-azaspiro[2.4]heptan-7-yl)ethanesulfonamide], in that order: 1 to 10 nM and 90 to 100%.
As for `N#CC1(CNC(=O)N2CC3(CC3)[C@H](NS(=O)(=O)CF)[C@@H]2Cc2cccc(-c3ccccc3)c2F)CC1` [Compound 186, (6S,7S)-N-((1-cyanocyclopropyl)methyl)-6-((2-fluoro-[1,1′-biphenyl]-3-yl)methyl)-7-((fluoromethyl)sulfonamido)-5-azaspiro[2.4]heptane-5-carboxamide], the EC50 is 0.0794 to 1 nM and the maximal effect (Emax) lay in the range of 90 to 100%.
On the same counts, the results for `CS(=O)(=O)NC1C(Cc2cccc(-c3ccccc3)c2)N(C(=O)C(F)F)CC12CC2` (racemic) [Compound 5, N-(6-([1,1′-biphenyl]-3-ylmethyl)-5-(2,2-difluoroacetyl)-5-azaspiro[2.4]heptan-7-yl)methanesulfonamide] are 100 to 1000 nM and 90 to 100%.
`O=C([C@H]1CCO1)N1CC2(CC2)[C@H](NS(=O)(=O)/C=C/F)[C@@H]1Cc1cccc(-c2ccccc2)c1F` [Compound 204, (E)-2-fluoro-N-((6S,7S)-6-((2-fluoro-[1,1′-biphenyl]-3-yl)methyl)-5-((R)-oxetane-2-carbonyl)-5-azaspiro[2.4]heptan-7-yl)ethene-1-sulfonamide]: the EC50 was 10 to 100 nM and the Emax lay in the range of 90 to 100%.
